The text below walks through data of ChEMBL document CHEMBL1157539, “Thousands of chemical starting points for antimalarial lead identification” (Nature, 2010).

This test concerns Plasmodium falciparum. Put plainly: GSK_TCMDC: Inhibition of Plasmodium falciparum 3D7 in whole erythrocytes, using parasite LDH activity as an index of growth. Conditions: Plasmodium falciparum, 3D7. The class given is functional, organism-based.
Compound `CCN(CC)CCN(Cc1ccc(-c2ccc(C(F)(F)F)cc2)cc1)C(=O)Cn1c(CCc2ccc(F)cc2)nc(=O)c2ccccc21` registered an XC50 of 1070 nM.

`COCCCn1c(=N)c(C(=O)NCCc2ccc(OC)cc2)cc2c(=O)n3cccc(C)c3nc21` had an XC50 of 1030 nM.

`CCc1cn(C)c2c(N3CCCC3=O)cc(C(=O)N[C@@H](Cc3ccccc3)[C@H](O)CNC(C)(C)c3cccc(C(F)(F)F)c3)cc12` registered an XC50 of 106 nM.

`Cc1cc(CN2CCC(C(=O)Nc3ccc(-c4nc5ccccc5[nH]4)cc3)CC2)oc1C` registered an XC50 of 1450 nM.

Regarding `CS(=O)(=O)CCNc1nccc(N2CCc3ncnc(Nc4ccc(OCc5cccc(F)c5)c(Cl)c4)c3C2)n1`, the XC50 amounted to 132 nM.

`CN(C)Cc1c(O)ccc2oc(Cc3ccccc3)cc12` yielded an XC50 of 912 nM.

Consider `Cc1cc(C2CCN(CCCCNC(=O)c3ccc(-c4ccc(C#N)cc4)cc3)CC2)c(C)cc1OCCO`, for which the XC50 was determined as 808 nM.

`O=C(Nc1ccc(Cn2nc(Cl)c(N3CCCNCC3)cc2=O)cc1)Nc1ccc(-c2ccccc2)cc1`: the XC50 stood at 843 nM.

`Cc1nnc2c(N(C(=O)NCCc3ccccc3)C(=O)NCCc3ccccc3)cc3cc(Cl)ccc3n12` showed an XC50 of 954 nM.

`CC1CCC(C(C)C)C(OC(=O)CSc2nnc3c(n2)[nH]c2ccccc23)C1` (stereo not drawn) returned an XC50 of 931 nM.

The compound `COc1cc(C=NN=c2cc(C)[nH]c3ccccc23)cc(OC)c1OC` had an XC50 of 730 nM.

In turn, `CN(C)C(=O)O[C@@H]1CN[C@H](C#Cc2cc3ncnc(Nc4ccc5c(cnn5Cc5cccc(F)c5)c4)c3s2)C1` returned an XC50 of 759 nM.

The compound `CN1N=C2c3ccccc3CCC2C1c1ccc(C#N)cc1` (stereo not drawn) gave an XC50 of 655 nM.

The compound `O=C1CC(C(=O)O)CC(=O)N1` displayed an XC50 of 763 nM.

On to `N=C(NCCCc1ccccc1)c1cccc(C(=N)NCCCc2ccccc2)n1`, for which the XC50 was found to be 1380 nM.

With `Clc1ccc2c(NN=Cc3ccccc3)ccnc2c1`, the XC50 came to 755 nM.

Compound `CCCCCCCCNCCCSCCCNCCCCCCCC` returned an XC50 of 1230 nM.

With `CC(C)CNC(=S)N1CCCN(c2nc3ccc(Cl)cc3s2)CC1`, the XC50 worked out at 960 nM.

As to `Cc1ccc(CCOCCCCCNCC(O)c2cc(Cl)c(N)c(Cl)c2)cc1` (stereo not drawn), the XC50 turned out to be 945 nM.

On to `CN1CCN(c2ccnc3ccc(NC(=O)c4ccc(Cl)c(Cl)c4)cc23)CC1`, for which the XC50 came out at 710 nM.

Consider `CC(=NNC(=N)N)c1ccc2ccc3ccccc3c2c1`, for which the XC50 stood at 892 nM.

On to `Fc1ccc2[nH]c(-c3cccc(-c4ccc(CN5CCN(CCN6CCOCC6)CC5)cc4)c3)nc2c1`, for which the XC50 amounted to 307 nM.

As to `CCn1cc(-c2cc(C(=O)Nc3ccc(OC)cc3C)c3ccccc3n2)c(C)n1`, the XC50 came out at 975 nM.

Compound `COc1ccc(-c2cnc3[nH]cc(-c4ccncc4)c3c2)cc1OC` registered an XC50 of 126 nM.

The compound `Cc1cc(-c2nc3cncc(-c4cccc(CN5CCCC5Cc5cccnc5)c4)c3n2C)nn1C` (stereo not drawn) came in with an XC50 of 132 nM.

Regarding `CCc1n[nH]c(C(=O)NC2CCN(CC3(c4ccc(OC)cc4)CCCCC3)CC2)c1C`, the XC50 is 892 nM.

Compound `CCc1ccc(CN(Cc2ccc(C)cc2)Cc2ccc(NC(C)=O)cc2)cc1` displayed an XC50 of 962 nM.

Take `COC(=O)c1ccc(CC(C)NCC(O)c2ccc(Cl)c(Cl)c2)cc1` (stereo not drawn): the XC50 was found to be 1000 nM.

Regarding `O=C(/C=C/c1ccc(Cl)c(Cl)c1)NC1CCC(CN2CCC(c3c[nH]c4ccccc34)CC2)CC1` (stereo not drawn), the XC50 is 235 nM.

With `Cc1cc2nc(-c3ccc(OCC(=O)NCc4cccc(C(F)(F)F)c4)cc3)[nH]c2cc1C`, the XC50 is 988 nM.

Turning to `Cc1ccc(CNC(=O)c2ccc(CN3CCCN(Cc4ccsc4)CC3)cc2)cc1`, the XC50 was found to be 868 nM.

`CN(Cc1ccc(C#N)cc1)C1CCN(c2cc(NC(=O)c3ccc(F)cc3)ccn2)CC1` had an XC50 of 1430 nM.

In turn, `CC12CC3CC(C)(C1)CC(Nc1nc(N4CCOCC4)nc4ccccc14)(C3)C2` yielded an XC50 of 938 nM.

As to `CCN(CCCN1CCCCC1)c1cc(C)nc(Nc2ccc(Cl)c(C(F)(F)F)c2)n1`, the XC50 amounted to 173 nM.

`Cc1c(C(C)(C)C)ccc2nc(N)nc(N)c12` had an XC50 of 8.73 nM.

In turn, `N=C(NCc1ccccc1)Nc1nc(-c2ccc(OCCCn3ccnc3)cc2)cs1` returned an XC50 of 253 nM.

Regarding `COc1ccc(C=NN=c2cc(C)[nH]c3ccc(C)cc23)c2ccccc12`, the XC50 came to 864 nM.

For `CO/C(=C\C=C\c1cc2cc(Cl)c(Cl)cc2[nH]1)C(=O)NCCN1CCCCC1`, the XC50 came out at 1400 nM.

As to `O=C(/C=C/c1ccccc1O)N1CCC(CCN2CCC(c3c[nH]c4ccccc34)CC2)CC1`, the XC50 is 1340 nM.

Regarding `CC(=O)Nc1ccc(S(=O)(=O)NC2=NC(=N)N(OCc3ccc(Cl)c(Cl)c3)C(C)(C)N2)cc1`, the XC50 was 33.9 nM.

Take `O=C(Nc1ccccc1)N1CCC(CN2CCOC(c3ccccc3)(c3ccccc3)C2)CC1`: the XC50 amounted to 206 nM.

As to `O=C(NC1CCC(CN2CCC(c3c[nH]c4ccccc34)CC2)CC1)c1csc(-c2ccc(C(F)(F)F)cc2Cl)n1` (stereo not drawn), the XC50 turned out to be 827 nM.

For `O=[N+]([O-])c1ccc(C(O)P(=O)(c2ccccc2)c2ccccc2)cc1` (stereo not drawn), the XC50 stood at 341 nM.

On to `COc1ccc2nc3cc(Cl)ccc3c(Nc3ccc(O)c(CN4CC5CCC(CC5)C4)c3)c2c1`, for which the XC50 was 172 nM.

`CCN1CCN(c2cc(C)c3cc(NC(=O)C=Cc4cccc(OC)c4OC)ccc3n2)CC1` yielded an XC50 of 697 nM.

The compound `Cc1cc(C2CCN(CCCCNC(=O)c3ccc(NC(=O)c4ccc(Cl)cc4)cc3)CC2)c(C)cc1OCCN(C)C` yielded an XC50 of 766 nM.

As for `O=C(Nc1cccc(-c2ccc(-c3nc4ccccc4[nH]3)cc2)c1)c1cnn2cccnc12`, the XC50 stood at 1060 nM.

`CCN1CCN(c2cc(C)c3cc(NC(=O)c4ccc(OC)c(OC)c4)ccc3n2)CC1` registered an XC50 of 1030 nM.

For `CN(C)CCCNCc1cn(S(=O)(=O)c2ccccc2Cl)c2ccccc12`, the XC50 was 1070 nM.

Regarding `CCCCCCCn1c(=O)c(C(=O)Nc2c(C)cccc2C)c(O)c2ccccc21`, the XC50 turned out to be 910 nM.

The compound `CCNc1cc(C(=O)N[C@@H](Cc2ccccc2)[C@H](O)CNC(C)(C)c2cccc(OC)c2)cc(N2CCCC2=O)c1` displayed an XC50 of 143 nM.

As to `COc1ccc2cc(C(=O)NC3CCC(CCN4CCc5cc(C#N)ccc5C4)CC3)[nH]c2c1` (stereo not drawn), the XC50 is 1010 nM.

The compound `CN(C)CCCc1cc(NC(=O)Nc2cccc(Cl)c2Cl)ccc1I` gave an XC50 of 539 nM.

Consider `CN(C)CCOc1ccnc2ccc(NC(=O)Cc3ccc(-c4ccncc4)c4ccccc34)cc12`, for which the XC50 is 277 nM.

Turning to `O=C(NC1CCC(CN2CCC(c3c[nH]c4ccccc34)CC2)CC1)c1cc(-c2ccccc2Cl)n(-c2cccc(Cl)c2)n1` (stereo not drawn), the XC50 amounted to 851 nM.

For `CCCCCC(C)C(C)c1cc(O)c2c(c1)OC(C)(C)CC2c1cc[n+]([O-])cc1` (stereo not drawn), the XC50 came to 499 nM.

On to `CC(Nc1nncc(-c2cccc(F)c2)n1)c1ccc(F)cc1` (stereo not drawn), for which the XC50 worked out at 791 nM.

Turning to `CC(C)Oc1cc2c(cc1NS(=O)(=O)c1ccc(-c3ccc(Cl)cc3)cc1)CCN(C)CC2`, the XC50 was 1040 nM.

With `CCCCN(CCCC)C(=N)c1cccc2c1CCCC2`, the XC50 was determined as 1560 nM.

`COC(=O)c1cc(NC(=O)Nc2ccc(Cn3ncc(N4CCCNCC4)c(Cl)c3=O)cc2)cc(C(=O)OC)c1` came in with an XC50 of 708 nM.

In turn, `Cc1cc(NCCC(=O)Nc2ccccc2)nc(NCc2ccccc2C)n1` came in with an XC50 of 657 nM.

Turning to `Fc1ccc2[nH]c(-c3ccc(-c4cccc(CN5CCC(CCN6CCCCC6)CC5)c4)cc3)nc2c1`, the XC50 is 136 nM.

`COc1ccc(CNc2nc(NCc3ccccc3)c3cc(OC)c(OC)cc3n2)cc1OC` returned an XC50 of 540 nM.

`Clc1ccccc1CNc1noc(-c2sccc2Br)n1` had an XC50 of 787 nM.

Consider `Nc1nc(N)c2c(Cc3ccccc3)cccc2n1`, for which the XC50 came to 828 nM.

On to `Cc1cc(N2CCCC2)nc(Nc2ccc(NC(=O)Cc3ccccc3)cc2)n1`, for which the XC50 came out at 606 nM.

For the compound `CC(C)N1CCN(C(CN2CCN(CCCOc3cccc(-c4ccccc4)c3)CC2)c2ccc(F)cc2)CC1` (stereo not drawn), the XC50 was 892 nM.

The compound `FC(F)(F)c1ccc2[nH]c(-c3cccc(-c4ccc(CNCCN5CCNCC5)cc4)c3)nc2c1` gave an XC50 of 862 nM.

As for `Cc1ccc(Oc2ccc(CNc3nc(Nc4cccc(F)c4)nc(Nc4cccc(F)c4)n3)cc2)cc1`, the XC50 was determined as 1210 nM.

Regarding `CNC(=O)c1cnc(Nc2ccc(OCC(O)CN(C)C)cc2)nc1Nc1cccc(OC)c1` (stereo not drawn), the XC50 amounted to 319 nM.

`Cc1n[nH]c2ccc(-c3cc(OC[C@@H](N)Cc4ccccc4)cnc3-c3ccc(OCc4cccc(F)c4)cc3)cc12` had an XC50 of 730 nM.

`CN(C)c1ccc(-c2cscc2C(=O)NC2CCCN(Cc3cccnc3)C2)cc1` (stereo not drawn) displayed an XC50 of 859 nM.

For the compound `O=C(Nc1ccnc2ccccc12)NC1CCN(Cc2ccccc2)CC1`, the XC50 stood at 988 nM.

The compound `COCCN(C)c1ccc(C(=O)Nc2ccccc2)cc1NS(=O)(=O)Cc1ccccc1` returned an XC50 of 571 nM.

`Cc1ccccc1C1CCN(C2CCC(NC(=O)/C=C/c3ccc(F)cc3)CC2)CC1` (stereo not drawn) had an XC50 of 1340 nM.

`Cc1[nH]c2ccccc2c1C1CCN(CC2CCC(NC(=O)/C=C/c3ccc(Cl)c(Cl)c3)CC2)CC1` (stereo not drawn) gave an XC50 of 822 nM.

`Cc1cccc2nc(-c3cccc(-c4ccc(NC(=O)C(C)(C)c5ccccn5)cc4)c3)[nH]c12` displayed an XC50 of 685 nM.

`COc1ccc(CNc2ncnc3c2[nH]c2ccc(F)cc23)cc1` had an XC50 of 980 nM.

In turn, `Cc1cc(N2CCC(N(C)C)C2)nc(Nc2ccc(Cl)cc2)n1` (stereo not drawn) came in with an XC50 of 517 nM.

Regarding `CCCCCCn1c(Sc2ccc(C#N)c([N+](=O)[O-])c2)nnc1-c1ccc(Cl)cc1`, the XC50 turned out to be 832 nM.

The compound `CC(C)(C)c1cc(Cn2ccnc2)cc(C(C)(C)C)c1O` showed an XC50 of 1040 nM.

`Nc1nc(N)c2c(ccc3c2ccn3Cc2ccc(-c3ccccc3)cc2)n1` registered an XC50 of 48.3 nM.

The compound `COc1ccc(-c2ccnc(-c3cccc(-c4ccccn4)n3)c2)cc1` gave an XC50 of 824 nM.

The compound `CN1CCC(COc2ccc(CN3CCC(NC(=O)c4cccc(Cl)c4)CC3)cc2)CC1` came in with an XC50 of 889 nM.

`Nc1ncc(-c2cn[nH]c2)cc1-c1nc2ccc(F)cc2[nH]1` gave an XC50 of 729 nM.

`CCN(CC)CCN1C(=O)c2oc3ccc(Cl)cc3c(=O)c2C1c1ccc(SC)cc1` (stereo not drawn) showed an XC50 of 1060 nM.

On to `CC(C)(CNCc1ccccc1)c1nc(-c2ccc(Cl)c(O)c2)c(-c2ccncc2)[nH]1`, for which the XC50 came out at 537 nM.

In turn, `Cc1cccc(C(=O)Nc2ccc(N3CCCN(Cc4cccc(O)c4)CC3)cc2)c1` gave an XC50 of 1420 nM.
